Test results: patent US20250325636A1, “USE OF ENDOTHELIN RECEPTOR TYPE B AGONISTS FOR THE TREATMENT OF AORTIC VALVE STENOSIS” (INSTITUT NATIONAL DE LA SANTÉ ET DE LA RECHERCHE MÉDICALE, priority 2022, published 2025)

Test system: valvular interstitial cells (VIC)
Assay: Calcium content of valvular interstitial cells cultured in pro-calcifying medium containing inorganic phosphate (o-cresolphtalein-based assay)
Type: cell-based, human
Settings: VIC in procalcifying conditions containing inorganic phosphate (Pi), 10 days, compared to non-treated VIC
Protocol: Valvular endothelial cells (VEC), isolated from human aortic valves, were cultured in a cell perfusion system to assess ET-1 production in different fluid flow shear stress conditions. In addition, valvular interstitial cells (VIC) were cultured in a pro-calcifying culture medium containing inorganic phosphate (Pi) with or without antagonists of either the ETA or ETB receptor antagonists or with the agonist of the ETB receptor IRL 1620 during 10 days. Aortic valves from rats were also cultured in ex vivo and stimulated with ET-1 antagonists. Calcium content was assessed using an o-cresolphtalein-based assay and fluorescence by Osteosens. VEC prepro-ET-1 and VIC osteogenic mRNA expression levels were evaluated by RTqPCR.

N-Succinyl-[Glu9, Alal U5]-Endothelin 1 fragment 8-21 [IRL-1620]
Calcium content of VIC: decreased the calcium content of VIC | Calcium content of VIC (listed as IRL 1620): decreases their calcium content
